Experimental data reported in patent publication US9439839B2, “Cosmetic solution, method for producing cosmetic solution, and cosmetic method” (priority 2011, dated 2016).

Experiment: evaluation of moisturizing power with oil water content measuring apparatus
Type: in vivo
Details: cosmetic solution diluted twice by water, applied to forearm flexor side; compared with propylene glycol and 1,3-butylene glycol
From the text: For the evaluation of moisturizing power, an oil water content measuring apparatus (WSK-P500U manufactured by Wave Cyber) was used. This measuring apparatus indicates the water content of the part of the skin to be measured by a relative value of 0 to 99. The part to be measured was the forearm flexor side.

For `OCC(O)CO` [glycerin], the moisturizing power was “highest moisturizing power”.
